According to ChEMBL document CHEMBL1764984 (J Med Chem, 2011):
≈ marks a conversion by molar mass, not a printed value.

What was measured:
[1] = molecular target: T1, Mitogen-activated protein kinase 14 (Homo sapiens, UniProt Q16539); assay: Inhibition of human recombinant p38alpha assessed as incorporation of 33P from gamma-[33P]ATP into myelin basic protein after 30 mins by scintillation counting
Blood = assay: Inhibition of TNFalpha-induced IL1-beta production in human whole blood after 2 to 5 hrs by ELISA; type: functional, tissue-based
[2] = molecular target: Tyrosine-protein kinase Lck (Homo sapiens, UniProt P06239); assay: Inhibition of LCK
[3] = molecular target: T1, Mitogen-activated protein kinase 14; assay: Inhibition of p38alpha
[4] = Aqueous solubility of the compound in phosphate buffer at pH 6.5; type: physicochemical
[5] = Permeability of the compound from apical to basolateral side of human Caco2 cells at 10 uM after 21 days; type: ADME, cell-based; conditions: Caco-2, read-out: permeability
[6] = Permeability of the compound from basolateral to apical side of human Caco2 cells at 10 uM after 21 days; type: ADME, cell-based; conditions: Caco-2, read-out: permeability
Rattus norvegicus = assay: Inhibition of LPS-induced TNFalpha production in rat serum at 3 mg/kg, po administered 30 mins before LPS challenge measured after […] by ELISA; type: functional

T1 sequence (Q16539 whole entry): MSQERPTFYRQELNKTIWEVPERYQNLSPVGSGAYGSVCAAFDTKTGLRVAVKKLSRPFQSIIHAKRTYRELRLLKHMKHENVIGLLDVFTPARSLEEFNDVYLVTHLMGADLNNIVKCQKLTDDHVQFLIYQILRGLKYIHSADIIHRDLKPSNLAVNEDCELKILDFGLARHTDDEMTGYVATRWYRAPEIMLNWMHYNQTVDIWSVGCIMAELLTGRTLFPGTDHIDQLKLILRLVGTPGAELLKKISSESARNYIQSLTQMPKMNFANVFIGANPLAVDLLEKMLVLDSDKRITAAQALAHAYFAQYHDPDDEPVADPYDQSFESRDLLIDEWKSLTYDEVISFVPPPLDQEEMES
Tyrosine-protein kinase Lck, sequence (P06239 whole entry): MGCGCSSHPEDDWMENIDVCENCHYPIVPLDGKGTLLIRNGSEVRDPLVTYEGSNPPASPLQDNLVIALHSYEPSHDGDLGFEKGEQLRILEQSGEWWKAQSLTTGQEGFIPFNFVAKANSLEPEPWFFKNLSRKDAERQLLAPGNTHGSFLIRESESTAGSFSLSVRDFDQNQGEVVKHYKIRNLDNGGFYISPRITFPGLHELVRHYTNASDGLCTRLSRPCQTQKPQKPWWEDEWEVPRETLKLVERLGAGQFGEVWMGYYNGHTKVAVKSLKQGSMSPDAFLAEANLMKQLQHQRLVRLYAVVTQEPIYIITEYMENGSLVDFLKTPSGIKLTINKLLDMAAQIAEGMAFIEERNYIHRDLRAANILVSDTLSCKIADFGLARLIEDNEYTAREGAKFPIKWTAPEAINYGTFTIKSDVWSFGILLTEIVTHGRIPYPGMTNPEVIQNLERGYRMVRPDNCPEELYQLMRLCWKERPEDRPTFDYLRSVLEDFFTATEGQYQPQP

Row | SMILES | IC50 [1] [nM] | IC50 (Blood) [nM] | also measured
1 | Cn1c(=O)c(Oc2cccc(F)c2)cc2cnc(NC3CCOCC3)nc21 | 594 | 1220 | –
2 | CC(C)(O)Cn1c(=O)c(Oc2ccc(F)cc2F)cc2cnc(NC3CCOCC3)nc21 | 12 | 84 | –
3 | CCn1c(=O)c(Oc2ccc(F)cc2F)cc2cnc(NC3CCOCC3)nc21 | 1 | 15 | –
4 | O=c1c(Oc2ccc(F)cc2F)cc2cnc(NC3CCOCC3)nc2n1C1CCS(=O)(=O)CC1 | 1 | 11 | –
5 | Cn1c(=O)c(Oc2ccc(F)cc2F)cc2cnc(NCCS(C)(=O)=O)nc21 | 223 | 1490 | –
6 | C[C@@H](CS(C)(=O)=O)Nc1ncc2cc(Oc3ccc(F)cc3F)c(=O)n(C)c2n1 | – | > 3000 | –
7 | Cn1c(=O)c(Oc2ccccc2F)cc2cnc(NC3CCOCC3)nc21 | 15 | 64.8 | –
8 | Cn1c(=O)c(Oc2ccc(F)cc2F)cc2cnc(NC(CO)CO)nc21 | 158 | 189 | –
9 | Cn1c(=O)c(Oc2ccc(F)cc2F)cc2cnc(NCC(C)(C)O)nc21 | 67 | – | –
10 | Cn1c(=O)c(Sc2ccccc2F)cc2cnc(NC3CCOCC3)nc21 | 111 | 731 | –
11 | CS(=O)(=O)CCCn1c(=O)c(Oc2ccc(F)cc2F)cc2cnc(NC3CCOCC3)nc21 | 6 | 18 | –
12 | O=C1Nc2nc(N[C@H]3CC[C@H](O)CC3)ncc2CN1c1ccccc1Cl | – | – | Kd [2]: > 20000 nM; Kd [3]: 32 nM
13 | CC(=O)N1CCC(Nc2ncc3cc(Oc4ccc(F)cc4F)c(=O)n(C)c3n2)CC1 | 1 | 30 | solubility [4]: 14 µg/mL (≈ 32.6 µM); Papp A→B at 10 µM [5]: 17.9 ×10⁻⁶ cm/s; Papp B→A at 10 µM [6]: 19.8 ×10⁻⁶ cm/s; inhibition in vivo at 3 mg/kg (Rattus norvegicus): 76%
14 | CC(C)Nc1ncc2cc(Oc3ccc(F)cc3F)c(=O)n(C)c2n1 | 4 | 45 | –
15 | Cn1c(=O)c(Oc2ccc(F)cc2F)cc2cnc(N[C@H]3CCOC3)nc21 | 31 | 373 | –
16 | O=c1c(Oc2ccc(F)cc2F)cc2cnc(NC3CCOCC3)nc2n1CCCO | – | 14 | –
17 | Cn1c(=O)c(Oc2ccc(F)cc2F)cc2cnc(NC3CCS(=O)(=O)CC3)nc21 | 15 | 769 | –
18 | Cn1c(=O)c(Cc2ccccc2F)cc2cnc(NC3CCOCC3)nc21 | 42 | 407 | –
19 | N#CCn1c(=O)c(Oc2ccc(F)cc2F)cc2cnc(NC3CCOCC3)nc21 | 2 | 28 | –
